“Also recorded” adds a separate entry of the source.
Experiments:
[1] = biological target: recombinant, purified human ATX (Homo sapiens, UniProt Q13822); assay: Mechanism of autotaxin inhibition (IC50, Ki, Ki′; FS-3 hydrolysis); type: biochemical; settings: for IC50: 8.3 nM ATX, 1 μM FS-3, 15 μM BSA; for ATX Mechanism of inhibition: FS-3 0.3 μM to 20 μM, inhibitor 0, 0.5× and 2× IC50
Procedure: The mechanism of inhibition of ATX was determined using recombinant, purified human ATX and FS-3. Final ATX and FS-3 concentrations were 8.3 nM and 1 μM, respectively and the assay buffer with 15 μM fatty acid tree BSA. To calculate IC50, full dose responses were determined for the test compounds. […] Simultaneous non-linear regression, using, WinNonLin® 6.1 (Pharsight, Mountain View, Calif.) was used to assign the mechanism of inhibition. Ki and Ki′ values (the affinity for free enzyme and enzyme substrate complex, respectively) were determined by calculating the lowest averaged percent residuals for each mechanism derived from curve fitting using the Michealis-Menten equations for competitive, uncompetitive, mixed-mode, and non-competitive inhibition.

[2] = test system: MM1 hepatocarcinoma cells; assay: Invasion of HUVEC monolayer by MM1 cells; type: cell-based, rat; settings: for LPC-dependent invasion of the HUVEC monolayer: 1.5 μM LPC, FIG. 14; for basal rate of invasion: compounds alone, without LPC
Description: (§1) Cancer metastasis is a complex process that cannon be accurately modeled in vitro. Models that utilize cellular monolayers for the invasion of carcinoma cell come the closest to the situation in vivo. Two different cell monolayers, mouse mesothelium and human vascular endothelium were used to examine the role of ATX in the invasion of MM1 hepatocarcinoma cells and the reduction of such invasion by the chemical compounds of the present application. The mesothelial monolayer is an accepted model for invasion of body cavities lined by serous cells whereas, the HUVEC monolayer is considered to be an in vitro model of hematogenous invasion of carcinomas.
(§2) Highly invasive MM1 cells originally isolated from the AH130 rat hepatoma cells were utilized in these studies. The cells were grown in suspension in DMEM supplemented with 10% fetal bovine serum, 2 mM glutamine, 100 units/ml penicillin and 10 μg/ml streptoinycin. Mesothelial cells were isolated and cultured from C57BL/6 mice. Human umbilical cord vascular endothelial cells (HUVEC) were obtained from VEC Technologies Inc., (Rensselaer, N.Y., USA) and were grown in MCDB-131 complete medium containing 10% fetal bovine serum. 90 μg/ml heparin, 10 ng/ml EGF, 1 μg/ml hydrocortisone, 0.2 mg/ml EndoGrowth supplement, 100 units/ml penicillin G, 100 μg/ml streptomycin and 25 μg/ml amphotericin B (all from VEC Technologies). Tumor cell invasion was performed by seeding 1.3×10^5 HUVECs (passage 7) into each well of a 12-well plate pre-coated with 0.2% gelatin (Sigma) and cultured for 2 days to form a confluent monolayer. Mesothelial cells harvested from two-three mice were initially plated in 6-well plates and grown to confluency in DMEM medium supplemented with 10% fetal bovine serum in the presence of 100 units/ml penicillin G and 10 μg/ml streptomycin. When confluent, the mesothelial cells were split into three equal aliquots (˜5×10^4 cells each) and plated to three wells of a 12-well plate and grown to confluence.
Invasion of MM1 cells of Example 53 was determined and the effect of compounds of the present application in reducing the invasion was determined. For all invasion assays, MM1 cells were pre-stained with 2 μg/ml calcein AM (Invitrogen, USA) for 2 h, rinsed once, and seeded at a density of 5×10^4 cells/well over the monolayers. Tumor cells were left to invade the HUVEC monolayer for 24 h in MCDB-131 complete media containing 1% serum with or without addition of 1.5 μM LPC. MM1 cells were plated on the mesothelial monolayers in 2% fetal bovine serum-supplemented DMEM medium in the presence of 100 units/ml penicillin G and 10 μg/ml streptomycin with or without 1.5 μM LPC (5 μM for the mesothelium cells) and invasion was allowed to proceed for 20 h. The day after MM1 cell seeding, non-invaded tumor cells were removed by repeated five rinses of the HUVEC monolayer (three rinses for the mesothelial monolayers) with PBS (containing Ca^2+ and Mg^2+) followed by fixation with 10% buffered formalin. The number of tumor cells that penetrated the monolayer was photographed under a NIKON TiU inverted microscope using phase-contrast and fluorescence illumination in a minimum of five non-overlapping fields at 100× magnification. The fluorescent images were overlayed on top of the phase contrast images using the Elements BR software (version 3.1x) and the invaded MM1 cells showing the characteristic flattened morphology in the plane of focus underneath the monolayer were counted. […]

[3] = test system: MM1 hepatocarcinoma cells; assay: Invasion of mesothelial cell monolayer by MM1 cells; type: cell-based, rat; settings: with LPC; FIG. 12 panel E
Description: as §1, §2
Invasion of MM1 cells of Example 53 was determined and the effect of compounds of the present application in reducing the invasion was determined. For all invasion assays, MM1 cells were pre-stained with 2 μg/ml calcein AM (Invitrogen, USA) for 2 h, rinsed once, and seeded at a density of 5×10^4 cells/well over the monolayers. […] The number of tumor cells that penetrated the monolayer was photographed under a NIKON TiU inverted microscope using phase-contrast and fluorescence illumination in a minimum of five non-overlapping fields at 100× magnification. The fluorescent images were overlayed on top of the phase contrast images using the Elements BR software (version 3.1x) and the invaded MM1 cells showing the characteristic flattened morphology in the plane of focus underneath the monolayer were counted. […]

[4] = affinity for enzyme substrate complex

Row | Structure (SMILES) | IC50 [1] [nM] | ATX Mechanism of inhibition [1] | Ki [1, 4] [nM] | Ki ([1]; affinity for free enzyme) [nM] | LPC-dependent invasion of the HUVEC monolayer [2] | basal rate of invasion [2] | MM1 cell invasion of the mesothelial monolayer [3]
1 | CCCCCCCCCCC/C=C/c1ccc2cc(CP(=O)(O)O)ccc2c1 [Compound 30b, (E)-6-Tridec-1-enyl-naphthalen-2-yl-methylphosphonic acid] | 1400 | MIXED | 1010 | 1500 | dose-dependently inhibited | did not reduce | inhibited
2 | CCCCCCCCCCCCCCCc1ccc(CP(=O)(O)O)cc1 [Compound 22, 4-Pentadecylbenzylphosphonic acid] | 170 | Mixed | 280 | 270 | dose-dependently inhibited; also recorded: blockage | did not reduce | inhibited; also recorded: inhibition

From patent US8673882B2, “Inhibitors of autotaxin” (University of Tennessee Research Foundation, priority 2011, dated 2014)
